From patent US20180028480A1, “METHODS OF REDUCING OR PREVENTING OXIDATIVE MODIFICATION OF MEMBRANE POLYUNSATURATED FATTY ACIDS” (Amarin Pharmaceuticals Ireland Limited, priority 2015, published 2018)

How the values were obtained:
sdLDL = assay: Copper-induced sdLDL oxidation (Example 7); assay type: biochemical, human; conditions: 10.0 μM; copper-induced oxidation 1 hour
Experimental: An experiment to study the antioxidant effect of EPA in small dense LDL (“sdLDL”) was performed. sdLDL was isolated from human plasma by isopycnic centrifugation, separated into test samples of 200 μg/mL, and incubated at 37° C. for 30 min in the absence (vehicle) or presence of EPA, fenofibrate, niacin, or gemfibrozil, each at 10.0 μM. All samples, with the exception of non-oxidized sdLDL controls, were subjected to copper-induced oxidation for 1 hour. Human umbilical vein endothelial cells (HUVECs) were incubated with the various sdLDL samples, stimulated with calcium, and monitored for nitric oxide (NO) and peroxynitrite (ONOO^−) release using nanosensor technology.

[1] = system: Human umbilical vein endothelial cells (HUVECs); assay: Nitric oxide release from HUVECs incubated with pretreated oxidized sdLDL (Example 7); assay type: cell-based; conditions: oxidized sdLDL pretreated at 10.0 μM
Experimental: All samples, with the exception of non-oxidized sdLDL controls, were subjected to copper-induced oxidation for 1 hour. Human umbilical vein endothelial cells (HUVECs) were incubated with the various sdLDL samples, stimulated with calcium, and monitored for nitric oxide (NO) and peroxynitrite (ONOO^-) release using nanosensor technology.

[2] = X-ray diffraction of glucose-treated DLPC/cholesterol membranes under oxidative conditions (Example 8); conditions: 10.0 μM; 0.6 C/P; glucose-induced lipid peroxidation 72 hours (FIG. 14)
Experimental: Values are reported as mean±S.D. (N=3).
[…] Membranes were reconstituted from DLPC and cholesterol at a C/P mole ratio of 0.6:1 and treated with the various agents to achieve a total drug-to-phospholipid mole ratio of 1:30.
(§1) Multilamellar vesicles (MLVs) were prepared as binary mixtures of POPC and cholesterol at 50 mol %. MLVs with DLPC and cholesterol at cholesterol-to-phospholipid (C/P) mole ratios of 0.1:1 to 1.1:1 were also prepared in a similar manner. Component lipids (in chloroform) were transferred to borosilicate culture tubes and combined with vehicle (ethanol) or an equal volume of EPA, DHA, fenofibrate, niacin or gemfibrozil stock solution(s) and adjusted to achieve a drug-to-phospholipid (D/P) mole ratio of 1:30. Membranes reconstituted from POPC and cholesterol (at 50 mol % cholesterol) were treated with each of the various agents at 5 mol %. Samples were then shell-dried under nitrogen gas and placed under vacuum for 3 hours to remove residual solvent.
After drying, each sample was resuspended in glucose-free or glucose-containing saline buffer to yield a final phospholipid concentration of 2.5 mg/mL. Lipid suspensions were then vortexed for 3 minutes at ambient temperature to form MLVs.
Membrane samples were oriented for x-ray diffraction analysis as described in Mason, et al., J. Biol. Chem., vol. 281, pages 9337-45 (2006). Briefly, 100 μL aliquots of each MLV preparation (containing 250 μg of phospholipid) were transferred to Lucite sedimentation cells fitted with a removable aluminum foil substrate designed to collect MLVs into a single membrane pellet upon centrifugation. Samples were then loaded into a Sorvall AH-629 swinging bucket ultracentrifuge rotor (DuPont Corp., Wilmington, Del.) and centrifuged at 35,000 g, 5° C., for 1.5 hours.
Following membrane orientation, sample supernatants were aspirated and aluminum foil substrates mounted onto curved glass slides. The membrane samples were then placed in hermetically sealed containers in which temperature and relative humidity were controlled during x-ray diffraction analysis. Data reported in this study were collected at 20° C. and 74% relative humidity.
This technique allows for precise measurement of the unit cell periodicity, or d-space, of the membrane lipid bilayer, which is the distance from the center of one lipid bilayer to the next, including surface hydration.
The presence of cholesterol domains in a given membrane sample results in the production of distinct Bragg (diffraction) peaks that have singular periodicity values of 34 Å and 17 Å. These peaks are typically referred to as first- and second-order cholesterol domain peaks.

[3] = X-ray diffraction of cholesterol-enriched POPC membranes without oxidative conditions (Example 8); conditions: 5 mol %, 50 mol % cholesterol, 15° C., 20° C.
Experimental: Values are mean±S.D. (N=3).
FIGS. 18A-18C show representative x-ray diffraction patterns collected from cholesterol-enriched model membranes treated with vehicle (control), eicosapentaenoic acid (EPA), or docosahexaenoic acid (DHA) and examined at 15° C., 20° C., and 30° C. Membranes were reconstituted from POPC and cholesterol at 50 mol % cholesterol and treated with each of the various agents at 5 mol % (to match treatments used in corresponding lipid dynamics experiments). Each sample was maintained at 74% relative humidity by exposing the samples to a saturated solution of L-(+) tartaric acid. […] DHA, but not EPA or vehicle, induced the formation of cholesterol domains, which are indicated by a distinct set of diffraction peaks (shaded peaks) having a characteristic d-space value of 34 Å and shown to be stable over a broad range of temperatures.
as §1
Membrane samples were oriented for x-ray diffraction analysis as described in Mason, et al., J. Biol. Chem., vol. 281, pages 9337-45 (2006). Briefly, 100 μL aliquots of each MLV preparation (containing 250 μg of phospholipid) were transferred to Lucite sedimentation cells fitted with a removable aluminum foil substrate designed to collect MLVs into a single membrane pellet upon centrifugation. […]

[4] = Fluorescence anisotropy, DPH apparent rotational correlation time (Example 8); conditions: POPC, 0 or 50 mol % cholesterol; increasing omega-3 fatty acid concentrations (FIGS. 16A-16B)
From the text: FIGS. 16A-16B show the dose-dependent effects of EPA and DHA on the ARCT measured for DPH in POPC membranes prepared at either 0 or 50 mol % cholesterol. †p=0.0331 versus cognate DHA treatment (5 mol % omega-3 fatty acids (O3FA), no cholesterol); ^§p=0.0016 versus cognate DHA treatment (5 mol % O3FA, 50 mol % cholesterol); ^‡p=0.0032 versus cognate DHA treatment (10 mol % O3FA, 50 mol % cholesterol) (unpaired, two-tailed Student's t-test). Values are mean±S.D. (N=3).
Fluorescence anisotropy experiments were conducted using large unilamellar vesicles (LUVs) of 100 nm diameter of either POPC (or POPC/cholesterol) containing increasing concentrations of EPA or DHA and 1 mol % DPH fluorescent. Briefly, 640 nmol of total lipid (phospholipid and sterol) and 6.4 nmol of fluorescent probe was mixed well and dried under a stream of nitrogen while being warmed gently at 35° C. […]
In order to ensure that the anisotropy values measured for DPH are not influenced by lifetime-induced artifacts, the apparent (average) rotational correlation times (ARCT) were calculated using Perrin's equation: […]
where r0 is the limiting anisotropy of DPH, r is the steady state anisotropy, and is the mean fluorescence lifetime.

## CC/C=C\C/C=C\C/C=C\C/C=C\C/C=C\CCCC(=O)O [EPA, cis-5,8,11,14,17-Eicosapentaenoic acid]
sdLDL
  reduction of sdLDL oxidation compared to vehicle treatment: > 90%
[1]
  increase of NO release as compared to non-oxidized sdLDL treatment: 23%
  increase of NO release as compared to oxidized LDL treatment: 53%
[2]
  effect on d-space values: significantly inhibited glucose-induced reductions and peroxidation-induced reductions in d-space values
[3]; 30° C. (FIG. 17)
  membrane width (d-space) compared to DHA or vehicle: increased the width (d-space)
[3]; 30° C. (FIG. 18)
  membrane cholesterol domain formation: did not induce cholesterol domain formation
[4]
  DPH apparent rotational correlation time / membrane fluidity: did not alter membrane fluidity
